Measured values from the NIST ThermoML archive (doi:10.1016/j.jct.2013.01.013).

Assay: xn = mol fraction of the nth substance listed
Settings: 101 kPa, Liquid; for viscosity: Capillary tube (Ostwald / Ubbelohde) method; for speed of sound: Linear variable-path acoustic interferometer; for mass density: Pycnometric method

C=C(C)C(=O)OC [methyl methacrylate] + CC(=O)N(C)C
Settings	mass density [kg/m3]	speed of sound [m/s]	viscosity [mPa·s]
288.15 K, x1 = 0.0714	946.01	1484.2	1.103
288.15 K, x1 = 0.144	946.49	1468.6	1.057
288.15 K, x1 = 0.2125	946.92	1452.9	1.016
288.15 K, x1 = 0.2823	947.31	1435.8	0.9751
288.15 K, x1 = 0.3568	947.69	1416.2	0.9339
288.15 K, x1 = 0.4318	948.02	1394.9	0.8939
288.15 K, x1 = 0.5046	948.31	1372.8	0.856
288.15 K, x1 = 0.5769	948.54	1349.9	0.8196
288.15 K, x1 = 0.6512	948.73	1325.5	0.7835
288.15 K, x1 = 0.7205	948.88	1302.7	0.7513
288.15 K, x1 = 0.7845	948.97	1282.2	0.7228
288.15 K, x1 = 0.8558	949.03	1259.7	0.6927
288.15 K, x1 = 0.9281	949.07	1237.5	0.6628
288.15 K, x1 = 1	949.1	1216.8	0.634
293.15 K, x1 = 0.0714	941.45	1467.3	0.9972
293.15 K, x1 = 0.144	941.87	1452.1	0.957
293.15 K, x1 = 0.2125	942.23	1436.6	0.9207
293.15 K, x1 = 0.2823	942.55	1419.2	0.8852
293.15 K, x1 = 0.3568	942.84	1399.5	0.8487
293.15 K, x1 = 0.4318	943.08	1378.3	0.8137
293.15 K, x1 = 0.5046	943.28	1356.3	0.7808
293.15 K, x1 = 0.5769	943.43	1333.1	0.7494
293.15 K, x1 = 0.6512	943.52	1308.9	0.7183
293.15 K, x1 = 0.7205	943.58	1286.3	0.691
293.15 K, x1 = 0.7845	943.59	1266	0.6666
293.15 K, x1 = 0.8558	943.54	1243.5	0.6409
293.15 K, x1 = 0.9281	943.46	1221.3	0.6153
293.15 K, x1 = 1	943.37	1200.5	0.5903
298.15 K, x1 = 0.0714	936.89	1448.2	0.9087
298.15 K, x1 = 0.144	937.25	1433.9	0.8736
298.15 K, x1 = 0.2125	937.54	1418.5	0.8414
298.15 K, x1 = 0.2823	937.79	1400.8	0.8102
298.15 K, x1 = 0.3568	937.99	1381	0.7782
298.15 K, x1 = 0.4318	938.14	1359.8	0.7473
298.15 K, x1 = 0.5046	938.25	1338	0.7186
298.15 K, x1 = 0.5769	938.31	1315.4	0.6915
298.15 K, x1 = 0.6512	938.31	1291.5	0.665
298.15 K, x1 = 0.7205	938.28	1269.3	0.6416
298.15 K, x1 = 0.7845	938.21	1248.9	0.6207
298.15 K, x1 = 0.8558	938.05	1226.9	0.5983
298.15 K, x1 = 0.9281	937.85	1204.6	0.5763
298.15 K, x1 = 1	937.63	1183.6	0.5544
303.15 K, x1 = 0.0714	932.33	1429.5	0.8475
303.15 K, x1 = 0.144	932.63	1415.5	0.8152
303.15 K, x1 = 0.2125	932.85	1400.7	0.7858
303.15 K, x1 = 0.2823	933.03	1383.5	0.7573
303.15 K, x1 = 0.3568	933.14	1363.9	0.7278
303.15 K, x1 = 0.4318	933.2	1342.9	0.6995
303.15 K, x1 = 0.5046	933.22	1321.2	0.6733
303.15 K, x1 = 0.5769	933.19	1298.9	0.649
303.15 K, x1 = 0.6512	933.1	1275.4	0.6253
303.15 K, x1 = 0.7205	932.98	1253.7	0.6042
303.15 K, x1 = 0.7845	932.82	1233.8	0.5853
303.15 K, x1 = 0.8558	932.56	1211.8	0.565
303.15 K, x1 = 0.9281	932.24	1189.9	0.545
303.15 K, x1 = 1	931.89	1168.5	0.5251
308.15 K, x1 = 0.0714	927.77	1409.8	0.789
308.15 K, x1 = 0.144	928.01	1396.4	0.7601
308.15 K, x1 = 0.2125	928.16	1382.1	0.7332
308.15 K, x1 = 0.2823	928.26	1365.2	0.7071
308.15 K, x1 = 0.3568	928.29	1345.7	0.68
308.15 K, x1 = 0.4318	928.26	1324.8	0.654
308.15 K, x1 = 0.5046	928.19	1303.4	0.6305
308.15 K, x1 = 0.5769	928.07	1281.5	0.6082
308.15 K, x1 = 0.6512	927.89	1258.5	0.5867
308.15 K, x1 = 0.7205	927.68	1237.5	0.5678
308.15 K, x1 = 0.7845	927.43	1217.7	0.5507
308.15 K, x1 = 0.8558	927.07	1196.1	0.5325
308.15 K, x1 = 0.9281	926.63	1174.2	0.514
308.15 K, x1 = 1	926.15	1152.6	0.496
313.15 K, x1 = 0.0714	923.21	1392.2	0.743
313.15 K, x1 = 0.144	923.38	1379.6	0.7165
313.15 K, x1 = 0.2125	923.46	1365.5	0.6916
313.15 K, x1 = 0.2823	923.49	1348.6	0.6671
313.15 K, x1 = 0.3568	923.44	1328.3	0.6422
313.15 K, x1 = 0.4318	923.32	1306.9	0.6183
313.15 K, x1 = 0.5046	923.16	1285.6	0.5963
313.15 K, x1 = 0.5769	922.95	1263.9	0.5759
313.15 K, x1 = 0.6512	922.68	1241.1	0.5562
313.15 K, x1 = 0.7205	922.38	1220.1	0.5387
313.15 K, x1 = 0.7845	922.04	1200.9	0.523
313.15 K, x1 = 0.8558	921.57	1179	0.506
313.15 K, x1 = 0.9281	921.01	1157.2	0.4891
313.15 K, x1 = 1	920.41	1135.4	0.4723
318.15 K, x1 = 0.0714	918.65	1374.5	0.7095
318.15 K, x1 = 0.144	918.75	1362.8	0.6842
318.15 K, x1 = 0.2125	918.76	1348.2	0.6607
318.15 K, x1 = 0.2823	918.72	1330.9	0.6374
318.15 K, x1 = 0.3568	918.59	1310.1	0.6135
318.15 K, x1 = 0.4318	918.38	1288.6	0.5905
318.15 K, x1 = 0.5046	918.13	1267.2	0.5693
318.15 K, x1 = 0.5769	917.83	1245.9	0.5497
318.15 K, x1 = 0.6512	917.47	1223.7	0.5307
318.15 K, x1 = 0.7205	917.08	1202.8	0.5141
318.15 K, x1 = 0.7845	916.65	1184	0.4991
318.15 K, x1 = 0.8558	916.07	1162.4	0.4828
318.15 K, x1 = 0.9281	915.39	1140.2	0.4662
318.15 K, x1 = 1	914.66	1118.3	0.4499
